Measured values as given in PubChem BioAssay AID256 (DTP/NCI, 2004).
Where “and” joins values, the source holds several entries; their conditions need not be identical. Identical values can stand only once. Toxic doses and inconclusive results are not listed.

Test system: CD2F1 mice, L1210 leukemia ip, survival T/C
Experiment: NCI In Vivo Anticancer Drug Screen. Data for tumor model L1210 Leukemia (intraperitoneal) in CD2F1 (CDF1) mice
Details: higher = longer survival
In short: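 Compound-dosed mice with transplantable tumor versus matched vehicle controls; endpoint ratio T/C reported.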

[1] = endpoint: mean survival time, dose: 100.0 mg/kg/injection, schedule: Q04DX002 (ip), vehicle: saline with Tween-80
[2] = endpoint: mean survival time, dose: 200.0 mg/kg/injection, schedule: Q04DX002 (ip), vehicle: saline with Tween-80
[3] = endpoint: mean survival time, dose: 400.0 mg/kg/injection, schedule: Q04DX002 (ip), vehicle: saline with Tween-80
[4] = endpoint: mean survival time, dose: 100.0 mg/kg/injection, schedule: Q04DX003 (ip), vehicle: saline with Tween-80
[5] = endpoint: mean survival time, dose: 200.0 mg/kg/injection, schedule: Q04DX003 (ip), vehicle: saline with Tween-80
[6] = endpoint: mean survival time, dose: 400.0 mg/kg/injection, schedule: Q04DX003 (ip), vehicle: saline with Tween-80

OCC1OC(n2cnc3c(=S)nc[nH]c32)C(O)C1O (configuration not stated)
T/C (endpoint: mean survival time, dose: 75.0 mg/kg/injection, schedule: Q01DX005 (ip), vehicle: saline): 104 % of control
T/C (endpoint: mean survival time, dose: 75.0 mg/kg/injection, schedule: Q01DX009 (ip), vehicle: saline): 107 % of control
T/C (endpoint: mean survival time, dose: 75.0 mg/kg/injection, schedule: Q01DX009 (oral), vehicle: saline): 97 % of control
T/C (endpoint: mean survival time, dose: 100.0 mg/kg/injection, schedule: Q01DX005 (ip), vehicle: saline): 122 % of control
T/C (endpoint: mean survival time, dose: 100.0 mg/kg/injection, schedule: Q01DX007 (ip), vehicle: Klucel (hydroxypropylcellulose) (HPC)): 115 % of control
T/C (endpoint: mean survival time, dose: 100.0 mg/kg/injection, schedule: Q01DX007 (ip), vehicle: saline): 152 % of control
T/C (endpoint: mean survival time, dose: 100.0 mg/kg/injection, schedule: Q01DX009 (ip), vehicle: Klucel (hydroxypropylcellulose) (HPC)): 118 % of control
T/C (endpoint: mean survival time, dose: 100.0 mg/kg/injection, schedule: Q01DX009 (ip), vehicle: saline): 154 % of control
T/C (endpoint: mean survival time, dose: 100.0 mg/kg/injection, schedule: Q03DX003 (ip), vehicle: Klucel (hydroxypropylcellulose) (HPC)): 95 % of control
T/C (endpoint: mean survival time, dose: 100.0 mg/kg/injection, schedule: Q04DX003 (ip), vehicle: Klucel (hydroxypropylcellulose) (HPC)): 102 % of control
T/C (endpoint: mean survival time, dose: 100.0 mg/kg/injection, schedule: Q04DX003 (ip), vehicle: saline): 113 % of control
T/C (endpoint: mean survival time, dose: 112.0 mg/kg/injection, schedule: Q01DX010 (ip), vehicle: saline): 110 % of control
T/C (endpoint: mean survival time, dose: 150.0 mg/kg/injection, schedule: Q01DX005 (ip), vehicle: saline): 107 % of control
T/C (endpoint: mean survival time, dose: 150.0 mg/kg/injection, schedule: Q01DX009 (ip), vehicle: saline): 116 % of control
T/C (endpoint: mean survival time, dose: 150.0 mg/kg/injection, schedule: Q01DX009 (oral), vehicle: saline): 98 % of control
T/C (endpoint: mean survival time, dose: 200.0 mg/kg/injection, schedule: Q01DX007 (ip), vehicle: saline): 157 % of control
T/C (endpoint: mean survival time, dose: 200.0 mg/kg/injection, schedule: Q01DX009 (ip), vehicle: saline): 179 % of control
T/C (endpoint: mean survival time, dose: 200.0 mg/kg/injection, schedule: Q03DX003 (ip), vehicle: Klucel (hydroxypropylcellulose) (HPC)): 102 % of control
T/C (endpoint: mean survival time, dose: 200.0 mg/kg/injection, schedule: Q03DX003 (ip), vehicle: saline): 150 % of control
T/C (endpoint: mean survival time, dose: 200.0 mg/kg/injection, schedule: Q04DX003 (ip), vehicle: Klucel (hydroxypropylcellulose) (HPC)): 100 % of control
T/C (endpoint: mean survival time, dose: 200.0 mg/kg/injection, schedule: Q04DX003 (ip), vehicle: saline): 150 % of control
T/C (endpoint: mean survival time, dose: 240.0 mg/kg/injection, schedule: Q01DX005 (ip), vehicle: saline): 164 % of control
T/C (endpoint: mean survival time, dose: 300.0 mg/kg/injection, schedule: Q01DX002 (sc), vehicle: saline): 109 % of control
T/C (endpoint: mean survival time, dose: 300.0 mg/kg/injection, schedule: Q01DX009 (oral), vehicle: saline): 105 % of control
T/C (endpoint: mean survival time, dose: 300.0 mg/kg/injection, schedule: Q04DX003 (ip), vehicle: saline): 108 % of control
T/C (endpoint: mean survival time, dose: 400.0 mg/kg/injection, schedule: Q01DX007 (ip), vehicle: saline): 104 % of control
T/C (endpoint: mean survival time, dose: 400.0 mg/kg/injection, schedule: Q01DX009 (ip), vehicle: saline): 116 % of control
T/C (endpoint: mean survival time, dose: 400.0 mg/kg/injection, schedule: Q03DX003 (ip), vehicle: Klucel (hydroxypropylcellulose) (HPC)): 111 % of control
T/C (endpoint: mean survival time, dose: 400.0 mg/kg/injection, schedule: Q03DX003 (ip), vehicle: saline): 154 % of control
T/C (endpoint: mean survival time, dose: 400.0 mg/kg/injection, schedule: Q04DX003 (ip), vehicle: Klucel (hydroxypropylcellulose) (HPC)): 111 % of control
T/C (endpoint: mean survival time, dose: 400.0 mg/kg/injection, schedule: Q04DX003 (ip), vehicle: saline): 175 % of control
T/C (endpoint: mean survival time, dose: 480.0 mg/kg/injection, schedule: Q01DX005 (ip), vehicle: saline): 156 % of control
T/C (endpoint: mean survival time, dose: 600.0 mg/kg/injection, schedule: Q01DX001 (ip), vehicle: saline): 97 % of control
T/C (endpoint: mean survival time, dose: 600.0 mg/kg/injection, schedule: Q01DX002 (ip), vehicle: saline): 104 % of control
T/C (endpoint: mean survival time, dose: 600.0 mg/kg/injection, schedule: Q01DX002 (sc), vehicle: saline): 116 % of control
T/C (endpoint: mean survival time, dose: 600.0 mg/kg/injection, schedule: Q01DX009 (oral), vehicle: saline): 97 % of control
T/C (endpoint: mean survival time, dose: 600.0 mg/kg/injection, schedule: Q03HX008 (ip), vehicle: saline): 119 % of control
T/C (endpoint: mean survival time, dose: 600.0 mg/kg/injection, schedule: Q03HX016 (ip), vehicle: saline): 121 % of control
T/C (endpoint: mean survival time, dose: 600.0 mg/kg/injection, schedule: Q04DX003 (ip), vehicle: saline): 114 % of control
T/C (endpoint: mean survival time, dose: 600.0 mg/kg/injection, schedule: Q08DX002 (ip), vehicle: saline): 104 % of control
T/C (endpoint: mean survival time, dose: 900.0 mg/kg/injection, schedule: Q01DX002 (ip), vehicle: saline): 118 % of control
T/C (endpoint: mean survival time, dose: 1200.0 mg/kg/injection, schedule: Q01DX001 (ip), vehicle: saline): 97 % of control
T/C (endpoint: mean survival time, dose: 1200.0 mg/kg/injection, schedule: Q01DX002 (ip), vehicle: saline): 116 % of control
T/C (endpoint: mean survival time, dose: 1200.0 mg/kg/injection, schedule: Q01DX009 (ip), vehicle: saline): 113 % of control
T/C (endpoint: mean survival time, dose: 1200.0 mg/kg/injection, schedule: Q03HX016 (ip), vehicle: saline): 154 % of control
T/C (endpoint: mean survival time, dose: 1200.0 mg/kg/injection, schedule: Q03HX024 (ip), vehicle: saline): 155 % of control and 158 % of control
T/C (endpoint: mean survival time, dose: 1200.0 mg/kg/injection, schedule: Q08DX002 (ip), vehicle: saline): 115 % of control
T/C (endpoint: mean survival time, dose: 2400.0 mg/kg/injection, schedule: Q01DX001 (ip), vehicle: saline): 98 % of control
T/C (endpoint: mean survival time, dose: 2400.0 mg/kg/injection, schedule: Q03HX016 (ip), vehicle: saline): 156 % of control
T/C (endpoint: median survival time, dose: 40.0 mg/kg/injection, schedule: Q01DX009 (ip), vehicle: saline): 114 % of control and 122 % of control
T/C (endpoint: median survival time, dose: 160.0 mg/kg/injection, schedule: Q01DX009 (ip), vehicle: saline): 155 % of control and 185 % of control
T/C (endpoint: median survival time, dose: 320.0 mg/kg/injection, schedule: Q01DX009 (ip), vehicle: saline): 185 % of control
T/C (endpoint: median survival time, dose: 400.0 mg/kg/injection, schedule: Q01DX005 (ip), vehicle: water): 150 % of control

Nc1ccnn1CCO
T/C (endpoint: mean survival time, dose: 100.0 mg/kg/injection, schedule: Q04DX003 (ip), vehicle: water): 102 % of control
T/C (endpoint: mean survival time, dose: 200.0 mg/kg/injection, schedule: Q04DX003 (ip), vehicle: water): 101 % of control
T/C (endpoint: mean survival time, dose: 400.0 mg/kg/injection, schedule: Q04DX003 (ip), vehicle: water): 101 % of control

COC1CCC(/C=C(\C#N)C2CCC([N+](=O)[O-])CC2)CC1Br (configuration not stated)
T/C (endpoint: mean survival time, dose: 25.0 mg/kg/injection, schedule: Q04DX002 (ip), vehicle: saline with Tween-80): 105 % of control
T/C (endpoint: mean survival time, dose: 50.0 mg/kg/injection, schedule: Q04DX002 (ip), vehicle: saline with Tween-80): 96 % of control

Clc1ccc(N=Cc2ccc3c(c2)OCO3)c(Cl)c1
T/C (endpoint: mean survival time, dose: 100.0 mg/kg/injection, schedule: Q01DX001 (ip), vehicle: Klucel (hydroxypropylcellulose) (HPC)): 100 % of control
T/C (endpoint: mean survival time, dose: 200.0 mg/kg/injection, schedule: Q01DX001 (ip), vehicle: Klucel (hydroxypropylcellulose) (HPC)): 96 % of control
T/C (endpoint: mean survival time, dose: 400.0 mg/kg/injection, schedule: Q01DX001 (ip), vehicle: Klucel (hydroxypropylcellulose) (HPC)): 97 % of control

COc1c(C)c2c(c3c1CCC(C)(CCC(=O)O)O3)C(=O)OC2 (configuration not stated)
T/C [1]: 103 % of control
T/C [2]: 108 % of control
T/C [3]: 100 % of control

Nc1ncnc2c1ncn2CCCCCO
T/C (endpoint: mean survival time, dose: 100.0 mg/kg/injection, schedule: Q01DX001 (ip), vehicle: saline with Tween-80): 96 % of control
T/C (endpoint: mean survival time, dose: 200.0 mg/kg/injection, schedule: Q01DX001 (ip), vehicle: saline with Tween-80): 91 % of control
T/C (endpoint: mean survival time, dose: 400.0 mg/kg/injection, schedule: Q01DX001 (ip), vehicle: saline with Tween-80): 91 % of control

C=CC1CCCCC1C=C (configuration not stated)
T/C [4]: 110 % of control
T/C [5]: 102 % of control
T/C [6]: 100 % of control

O=C1c2ccccc2C(=O)c2ccccc21
T/C (endpoint: mean survival time, dose: 100.0 mg/kg/injection, schedule: Q01DX009 (ip), vehicle: saline with Tween-80): 93 % of control
T/C [4]: 87 % of control
T/C (endpoint: mean survival time, dose: 200.0 mg/kg/injection, schedule: Q01DX009 (ip), vehicle: saline with Tween-80): 100 % of control
T/C [5]: 93 % of control
T/C (endpoint: mean survival time, dose: 400.0 mg/kg/injection, schedule: Q01DX009 (ip), vehicle: saline with Tween-80): 94 % of control
T/C [6]: 88 % of control

CCCNc1ncc(C(=O)O)c(=O)[nH]1
T/C (endpoint: mean survival time, dose: 1.56 mg/kg/injection, schedule: Q01DX009 (ip), vehicle: saline sonified): 100 % of control
T/C (endpoint: mean survival time, dose: 3.1 mg/kg/injection, schedule: Q01DX009 (ip), vehicle: saline sonified): 100 % of control
T/C (endpoint: mean survival time, dose: 6.25 mg/kg/injection, schedule: Q01DX009 (ip), vehicle: saline sonified): 102 % of control

NC(C(=O)O)=C(c1ccccc1)c1ccccc1
T/C [1]: 98 % of control
T/C [2]: 102 % of control
T/C [3]: 102 % of control
